In patent publication US20190100519A1, “HYDROCHLORIDE SALT CRYSTAL OF DRUG FOR TREATING OR PREVENTING JAK-ASSOCIATED DISEASE AND PREPARATION METHOD THEREOF” (CRYSTAL PHARMATECH CO., LTD., priority 2016, published 2019):
Values after ≈ are worked out from the molar mass of the structure shown. Read-outs that look alike come from different tables or passages of the source.

Legend:
[1] = clinical trials; cited from earlier work
[2] = Stability assessment of Form A (storage, XRPD); assay type: physicochemical; settings: two weeks
Protocol: 5 samples (10.0 mg each) of Form A obtained from example 2 was stored at 5° C., 25° C./60% RH, 40° C./75% RH, 60° C./75% RH and 80° C. for two weeks, then XRPD test was performed after one week and two weeks. The results are depicted in FIG. 6 and FIG. 7. FIG. 6 is the XRPD overlay of one-week stability, and the patterns from top to bottom are initial Form A, and Form A after storing at 25° C./60% RH, 40° C./75% RH, 60° C./75% RH, 80° C. for one week, respectively. FIG. 7 is the XRPD overlay of two-week stability, and the patterns from top to bottom are initial Form A, and Form A after storing at 25° C./60% RH, 40° C./75% RH, 60° C./75% RH and 80° C. for two weeks, respectively.

[3] = Solubility assessment (saturated solutions, HPLC); assay type: physicochemical; settings: for solubility at 1 h / solubility at 4 h: thermodynamic from solid
Protocol: The concentration of the saturated solutions was measured through HPLC after 1 hour and 4 hours.

[4] = Particle size comparison experiment (laser particle size analyzer); assay type: physicochemical; settings: wet method, Isopar G
Protocol: Wet method was used and Isopar G was used as the dispersion medium. [table] The particle size distributions of obtained Form A (example 2), Form B (example 4), Form C (example 5), Form D (example 8) and the reference form were measured.

[5] = Slurry experiment in different water activities (XRPD); assay type: physicochemical
Protocol: The samples were centrifuged after 48 hours, and tested by XRPD.

[6] = simulated gastric fluid, Solubility SGF

SMILES	solubility compared with reference form [3]	Solubility Water ([3]; 1 h) [µg/mL]	D10 [4] [μm]	D50 [4] [μm]	D90 [4] [μm]	MV (average particle size calculated by volume) [4] [μm]	Solubility SGF ([3]; 1 h) [µg/mL]	Solubility SGF ([3]; 4 h) [µg/mL]	Solubility Water ([3]; 4 h) [µg/mL]	further results
O=C(Nc1nc2cccc(-c3ccc(CN4CCS(=O)(=O)CC4)cc3)n2n1)C1CC1 [Filgotinib, N-[5-[4-[(1,1-dioxo-1-thiomorpholin-4-yl)methyl]phenyl][1,2,4]triazole[1,5-a]pyridin-2-yl] cyclopropanecarboxamide]	–	–	–	–	–	–	–	–	–	anemia and abnormal increase in LDL [1]: does not cause an anemia and abnormal increase in LDL
Cl.O=C(Nc1nc2cccc(-c3ccc(CN4CCS(=O)(=O)CC4)cc3)n2n1)C1CC1 [Form A]	higher solubility than the reference form	1080	1.72	8.93	62.08	24.64	–	–	–	form change (XRPD) after storage ([2]; 5° C.): no form change; form change (XRPD) after storage ([2]; 25° C./60% RH): no form change; form change (XRPD) after storage ([2]; 40° C./75% RH): no form change; form change (XRPD) after storage ([2]; 60° C./75% RH): no form change; form change (XRPD) after storage ([2]; 80° C.): no form change; solubility at 1 h [3, 6]: 1280 µg/mL; solubility at 4 h [3, 6]: 1200 µg/mL; solubility at 4 h ([3]; water, Solubility Water): 2430 µg/mL
Cl.O=C(Nc1nc2cccc(-c3ccc(CN4CCS(=O)(=O)CC4)cc3)n2n1)C1CC1 [Form B]	higher solubility than the reference form	5020	2.53	20.30	110.4	44.66	1450	960	3590	–
Cl.O=C(Nc1nc2cccc(-c3ccc(CN4CCS(=O)(=O)CC4)cc3)n2n1)C1CC1 [Form C]	higher solubility than the reference form	5180	1.87	13.57	66.16	29.92	1930	1120	3060	–
Cl.O=C(Nc1nc2cccc(-c3ccc(CN4CCS(=O)(=O)CC4)cc3)n2n1)C1CC1 [Form D]	higher solubility than the reference form	3000	5.77	25.92	82.42	41.24	2220	1150	2370	–
O=C(Nc1nc2cccc(-c3ccc(CN4CCS(=O)(=O)CC4)cc3)n2n1)C1CC1 [Reference form, reference compound]	–	–	2.95	6.29	12.35	7.24	–	–	–	solubility at 1 h ([3]; simulated gastric fluid (SGF), simulated gastric fluid, simulated gastric fluid (SGF), 1 h, read-out: Solubility SGF): 70 µg/mL (≈ 165 µM); solubility at 4 h ([3]; simulated gastric fluid (SGF), simulated gastric fluid, simulated gastric fluid (SGF), 4 h, read-out: Solubility SGF): 920 µg/mL (≈ 2160 µM); solubility at 1 h ([3]; water, water, 1 h, read-out: Solubility Water): 810 µg/mL (≈ 1900 µM); solubility at 4 h ([3]; water, water, 4 h, read-out: Solubility Water): 3000 µg/mL (≈ 7050 µM); Final Form ([5]; H2O/ACN 1:99, water activity 0.2, slurry 48 hours): Form A; Final Form ([5]; H2O/ACN 2:98, water activity 0.4, slurry 48 hours): Form A; Final Form ([5]; H2O/EtOH 2:98, water activity 0.15, slurry 48 hours): Form A; Final Form ([5]; H2O/MeOH 7:93, water activity 0.2, slurry 48 hours): Form A; Final Form ([5]; H2O/MeOH 16:84, water activity 0.4, slurry 48 hours): Form A; stability under low water activity ([5]; low water activity): not stable
